Values quoted from earlier work in patent US20160303264A1, “LIPOSOMES USEFUL FOR NON-INVASIVE IMAGING AND DRUG DELIVERY” (MERRIMACK PHARMACEUTICALS, INC., priority 2013, published 2016).

Conditions: human studies

CN=C([S-])N/N=C(C)/C(C)=N/NC([S-])=NC.[64Cu+2] [^64Cu-ATSM]
adverse events or clinically detectable pharmacologic effects: No adverse events or clinically detectable pharmacologic effects
changes in vital signs or laboratory test results after injection: no clinically significant changes
